Entries after “also recorded” stand apart in the source; their conditions may differ.
Key:
HIV-1 = format: cell-based
primary human PBM cells = assay: Cytotoxicity in primary human PBM cells; format: cell-based
Vero cells = assay: Cytotoxicity in Vero cells; format: cell-based, African Green monkey

Row | SMILES | Anti-HIV-1 activity (in words) (HIV-1) | Toxicity in primary human PBM cells (in words) (primary human PBM cells) | Toxicity in Vero cells (in words) (Vero cells) | Toxicity in CEM cells (in words) (CEM cells)
1 | Cc1c2c(nn1CC(=O)NCc1ccccc1Cl)-c1ccccc1S(=O)(=O)N2C [Compound 6a] | active | no toxicity | toxic; also recorded: displayed toxicity | no toxicity
2 | Cc1c2c(nn1CC(=O)NCc1ccc(F)cc1)-c1ccccc1S(=O)(=O)N2C [Compound 6c] |  |  |  | toxic
3 | Cc1c2c(nn1CC(=O)NCc1ccccc1Br)-c1ccccc1S(=O)(=O)N2C [Compound 6d] | active |  | toxic | toxic
4 | COc1ccccc1CNC(=O)Cn1nc2c(c1C)N(C)S(=O)(=O)c1ccccc1-2 [Compound 6e] | active | no toxicity | no toxicity | no toxicity
5 | COc1cccc(CNC(=O)Cn2nc3c(c2C)N(C)S(=O)(=O)c2ccccc2-3)c1 [Compound 6f] |  | toxic | toxic | toxic
6 | COc1ccc(CNC(=O)Cn2nc3c(c2C)N(C)S(=O)(=O)c2ccccc2-3)cc1 [Compound 6g] | active | no toxicity | no toxicity | no toxicity
7 | Cc1ccc(CNC(=O)Cn2nc3c(c2C)N(C)S(=O)(=O)c2ccccc2-3)cc1 [Compound 6i] | active | no toxicity | no toxicity | no toxicity
8 | Cc1c2c(nn1CC(=O)Nc1ccccc1)-c1ccccc1S(=O)(=O)N2C [Compound 7a] | effective inhibitors; also recorded: active |  |  | 
9 | Cc1c2c(nn1CC(=O)Nc1ccccc1F)-c1ccccc1S(=O)(=O)N2C [Compound 7b] | effective inhibitors; also recorded: active |  |  | 
10 | Cc1c2c(nn1CC(=O)Nc1ccccc1Br)-c1ccccc1S(=O)(=O)N2C [Compound 7c] | effective inhibitors; also recorded: active |  |  | 
11 | Cc1c2c(nn1CC(=O)Nc1cccc(Br)c1)-c1ccccc1S(=O)(=O)N2C [Compound 7d] | effective inhibitors; also recorded: active |  |  | 
12 | COc1cccc(NC(=O)Cn2nc3c(c2C)N(C)S(=O)(=O)c2ccccc2-3)c1 [Compound 7e] | effective inhibitors; also recorded: active |  | no toxicity | 

Source: PMC7717120 (Bioorganic & medicinal chemistry letters, 2015)
